# Results reported in patent US20250136618A1, “ANTIBIOTIC PYRAZINOTHIAZINE DERIVATIVES AND PROCESS OF PREPARATION THEREOF” (Bugworks Research India PVT Ltd, priority 2021, published 2025).
# Experiments:
# Format in all cases: cell-based
# Acinetobacter baumannii = assay: MIC90 determination, clinical strains (CLSI); conditions: for MIC90: Acinetobacter baumannii, N=38, read-out: MIC 90 Acinetobacter baumannii
# hERG potassium channel = hERG potassium channel (Homo sapiens (Human), UniProt Q12809); assay: hERG inhibition assay (Qpatch HTX automated electrophysiology); conditions: CHO cell line expressing hERG, whole-cell patch clamp
# Protocol: Electrophysiological recordings were made from a Chinese Hamster Ovary cell line stably expressing the full-length hERG potassium channel. Single cell ionic currents were measured in whole-cell patch clamp configuration at room temperature (21-23° C.) using the Qpatch HTX platform (Sophion). Intracellular solution contained (mM): 120 KF, 20 KCl, 10 EGTA, 10 HEPES and was buffered to pH 7.3. […] Cells were clamped at a holding potential of −80 mV. Cells were stepped to +20 mV for 2 s then −40 mV for 3 s before returning to the holding potential. […] Compounds were then incubated for 2 minutes prior to a second measurement of ion channel current using an identical pulse train.
# Pseudomonas aeruginosa = assay: MIC90 determination, clinical strains (CLSI); conditions: for MIC90: Pseudomonas aeruginosa, N=34, read-out: MIC 90 Pseudomonas aeruginosa
# [1] = test system: Klebsiella aerogenes, K. oxytoca; assay: MIC90 determination, clinical strains (CLSI); conditions: for MIC90: N=17, read-out: MIC 90 Klebsiella aerogenes, K. oxytoca
# Proteus mirabilis = assay: MIC90 determination, clinical strains (CLSI); conditions: for MIC90: Proteus mirabilis, N=12, read-out: MIC 90 Proteus mirabilis
# [2] = test system: Klebsiella pneumoniae ATCC 13883; assay: Minimum Inhibitory Concentration (MIC) in LB media; conditions: for MIC: Klebsiella pneumoniae, ATCC13883, read-out: Minimum Inhibitory Concentration K. pneumoniae ATCC 13883
# Source text: (§1) The compounds of Formula Ia and Formula Ib are of interest due to their potent antibacterial effects. The ability of the compounds disclosed herein to achieve an antibacterial effect may be evaluated with regard to their ability to inhibit the growth of bacterial species like Escherichia coli ATCC 25922, Staphylococcus aureus ATCC 29213, Klebsiella pneumoniae ATCC 13883, Acinetobacter baumannii ATCC 19606, Pseudomonas aeruginosa ATCC 27853 and Enterococcus faecalis ATCC 29212 using an assay based on the following Minimum Inhibitory Concentration (MIC) protocol:
# (§2) The test bacteria were grown in Luria Bertani Broth (HIMEDIA M1245), 25 g of the powder was dissolved in 1000 ml distilled water and sterilized by autoclaving at 15 lbs pressure (121° C.) for 20 minutes. The medium sterility was checked by incubating at 37° C. for a period of 48 h. Bacterial cultures that were stored as glycerol stocks at −80° C. were subcultured on LB agar plates to obtain isolated colonies. A single colony of each strain was cultured in LB broth. The cultures were incubated at 37° C., 200 rpm till they reached an optical density (OD at 600 nm) of 0.8 to 1. This log phase culture was diluted in LB broth to a cell number of 5-8*10^5 CFU/mL to be used as inoculum for MIC experiments. Test compounds were dissolved in dimethyl sulfoxide (DMSO) to a stock concentration of 4 mg/ml. A two-fold dilution series of this DMSO stock was prepared in a 96 well V bottom microtitre plate from rows A to H. A 3 μL volume of these dilutions are transferred to a 96-well flat bottom microtitre assay plate. Controls to monitor the effects of DMSO and media sterility were included. Each well was inoculated with 150 μL of the above diluted culture. The plates were incubated at 37° C. overnight in a humidified incubator. The following morning, the plates were read using a Spectrophotometer at 600 nm wavelength. […] The antibacterial activity (MIC) determined against representative gram-positive (S. aureus, E. faecalis) and gram-negative (E. coli, Aeruginosa, K. pneumoniae, and A. baumannii) pathogen are reported Table 1.
# [3] = test system: Enterococcus faecalis ATCC 29212; assay: Minimum Inhibitory Concentration (MIC) in LB media; conditions: for MIC: Enterococcus faecalis, ATCC29212, read-out: Minimum Inhibitory Concentration E. faecalis ATCC 29212
# Source text: as §1, §2
# [4] = test system: Staphylococcus aureus ATCC 29213; assay: Minimum Inhibitory Concentration (MIC) in LB media; conditions: for MIC: Staphylococcus aureus, ATCC29213, read-out: Minimum Inhibitory Concentration S. aureus ATCC 29213
# Source text: as §1, §2
# [5] = test system: Pseudomonas aeruginosa ATCC 27853; assay: Minimum Inhibitory Concentration (MIC) in LB media; conditions: for MIC: Pseudomonas aeruginosa, ATCC27853
# Source text: as §1, §2
# [6] = test system: Escherichia coli ATCC 25922; assay: Minimum Inhibitory Concentration (MIC) in LB media; conditions: for MIC: Escherichia coli, ATCC25922, read-out: Minimum Inhibitory Concentration E. coli ATCC 25922
# Source text: as §1, §2
# [7] = test system: Acinetobacter baumannii ATCC 19606; assay: Minimum Inhibitory Concentration (MIC) in LB media; conditions: for MIC: Acinetobacter baumannii, ATCC19606
# Source text: as §1, §2
# Enterobacter cloacae = assay: MIC90 determination, clinical strains (CLSI); conditions: for MIC90: Enterobacter cloacae, N=26, read-out: MIC 90 Enterobacter cloacae
# Klebsiella pneumoniae = assay: MIC90 determination, clinical strains (CLSI); conditions: for MIC90: Klebsiella pneumoniae, N=86, read-out: MIC 90 Klebsiella pneumoniae
# CHO-K1 cells = assay: In-vitro micronucleus assay
# Protocol: Genetic toxicology studies were performed on the compounds of the present disclosure to assess their ability to cause DNA damage. The in-vitro micronucleus assay measured the concentration (μM) of the compound at which micronuclei formation occurred. A micronuclei formation at lower concentration indicates more genetic damage or genotoxicity.
# Micronucleus formation is a hallmark of genotoxicity, and the micronucleus assay is an important component of genotoxicity screening. Micronuclei are chromatin-containing bodies that represent fragments or even whole chromosomes that were not incorporated into a daughter cell nucleus at mitosis. The purpose of the assay is to detect agents that induce chromosome damage leading to the induction of micronuclei in interphase cells. The in vitro micronucleus assay was conducted in CHO-K1 cells according to the procedure described by Diaz, D et al [Mutat Res. 630(1-2):1-13. […] The formation of the micronucleus is identified by image-based high content analysis from binucleated cells.
# Citrobacter freundii = assay: MIC90 determination, clinical strains (CLSI); conditions: for MIC90: Citrobacter freundii, N=19, read-out: MIC 90 Citrobacter freundii
# [8] = test system: Providencia rettgeri, P. stuartii; assay: MIC90 determination, clinical strains (CLSI); conditions: for MIC90: N=12, read-out: MIC 90 Providencia rettgeri, P. stuartii
# Serratia marcescens = assay: MIC90 determination, clinical strains (CLSI); conditions: for MIC90: Serratia marcescens, N=15, read-out: MIC 90 Serratia marcescens
# Escherichia coli = assay: MIC90 determination, clinical strains (CLSI); conditions: for MIC90: Escherichia coli, N=38, read-out: MIC 90 Escherichia coli
# Morganella morganii = assay: MIC90 determination, clinical strains (CLSI); conditions: for MIC90: Morganella morganii, N=11, read-out: MIC 90 Morganella morganii
# Chain of hERG potassium channel (Q12809 whole entry): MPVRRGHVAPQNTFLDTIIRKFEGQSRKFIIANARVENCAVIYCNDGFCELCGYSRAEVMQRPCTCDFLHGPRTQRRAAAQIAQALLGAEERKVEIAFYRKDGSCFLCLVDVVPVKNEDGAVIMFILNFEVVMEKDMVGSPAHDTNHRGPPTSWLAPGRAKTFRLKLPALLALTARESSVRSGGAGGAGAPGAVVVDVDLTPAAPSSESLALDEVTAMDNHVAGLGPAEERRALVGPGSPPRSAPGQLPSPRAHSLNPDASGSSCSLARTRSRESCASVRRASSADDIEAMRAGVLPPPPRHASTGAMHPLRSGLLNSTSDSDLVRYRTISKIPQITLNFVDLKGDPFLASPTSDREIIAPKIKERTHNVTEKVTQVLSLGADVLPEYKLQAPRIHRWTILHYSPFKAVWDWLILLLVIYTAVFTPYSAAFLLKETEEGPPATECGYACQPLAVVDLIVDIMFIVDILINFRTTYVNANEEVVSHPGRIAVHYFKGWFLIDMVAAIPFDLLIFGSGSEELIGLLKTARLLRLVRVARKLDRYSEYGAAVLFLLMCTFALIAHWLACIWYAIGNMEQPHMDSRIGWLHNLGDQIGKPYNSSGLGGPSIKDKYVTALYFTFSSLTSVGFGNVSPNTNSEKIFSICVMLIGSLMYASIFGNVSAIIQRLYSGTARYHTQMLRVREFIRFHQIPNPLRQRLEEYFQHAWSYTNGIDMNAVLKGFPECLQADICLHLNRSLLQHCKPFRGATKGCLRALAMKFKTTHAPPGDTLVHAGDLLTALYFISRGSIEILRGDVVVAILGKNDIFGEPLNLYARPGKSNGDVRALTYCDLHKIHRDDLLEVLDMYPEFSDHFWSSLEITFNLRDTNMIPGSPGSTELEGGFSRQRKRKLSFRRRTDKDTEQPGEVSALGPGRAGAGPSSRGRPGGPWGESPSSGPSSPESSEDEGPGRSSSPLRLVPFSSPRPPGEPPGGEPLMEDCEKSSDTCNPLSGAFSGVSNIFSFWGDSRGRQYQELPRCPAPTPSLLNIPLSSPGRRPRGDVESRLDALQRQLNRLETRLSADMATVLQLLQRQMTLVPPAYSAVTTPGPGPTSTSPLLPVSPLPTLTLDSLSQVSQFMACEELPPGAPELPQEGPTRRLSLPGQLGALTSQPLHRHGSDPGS
MIC90 (Acinetobacter baumannii) [µg/mL],MIC90 (Pseudomonas aeruginosa) [µg/mL],MIC90 [1] [µg/mL],MIC90 (Proteus mirabilis) [µg/mL],MIC [2] [µg/mL],MIC [3] [µg/mL],MIC [4] [µg/mL],MIC [5] [µg/mL],MIC [6] [µg/mL],MIC [7] [µg/mL],MIC90 (Enterobacter cloacae) [µg/mL],MIC90 (Klebsiella pneumoniae) [µg/mL],MIC90 (Citrobacter freundii) [µg/mL],MIC90 [8] [µg/mL],MIC90 (Serratia marcescens) [µg/mL],MIC90 (Escherichia coli) [µg/mL],MIC90 (Morganella morganii) [µg/mL],Compound,IC50 (hERG potassium channel) [µM],% (in-vitro micronucleus assay) (CHO-K1 cells; Chinese hamster) [%],In vitro micronucleus forming concentration (CHO-K1 cells; Chinese hamster) [µM],further results
,,,,,,,,,,,,,,,,,"(S)-5-(((2-((4-Methyl-d3)-3-oxo-1,2,3,4-tetrahydropyrido[2,3-b]pyrazin-6-yl)oxy)ethyl)amino)methyl)-3-(3-oxo-3,4-dihydro-2H-pyrazino[2,3-b][1,4]thiazin-6-yl)oxazolidin-2-one [Compound 10]",157,,,"MIC 90 Acinetobacter baumannii (Acinetobacter baumannii; N=38): 1 µg/mL; MIC 90 Pseudomonas aeruginosa (Pseudomonas aeruginosa; N=34): 4 µg/mL; MIC 90 Klebsiella aerogenes, K. oxytoca ([1]; N=17): 2 µg/mL; MIC 90 Proteus mirabilis (Proteus mirabilis; N=12): 4 µg/mL; Minimum Inhibitory Concentration K. pneumoniae ATCC 13883 [2]: 0.06 µg/mL; Minimum Inhibitory Concentration E. faecalis ATCC 29212 [3]: 0.125 µg/mL; Minimum Inhibitory Concentration S. aureus ATCC 29213 [4]: <0.015 µg/mL; Minimum Inhibitory Concentration Aeruginosa ATCC 27853 [5]: 1 µg/mL; Minimum Inhibitory Concentration E. coli ATCC 25922 [6]: 0.06 µg/mL; Minimum Inhibitory Concentration A. baumannii ATCC 19606 [7]: 0.06 µg/mL; MIC 90 Enterobacter cloacae (Enterobacter cloacae; N=26): 8 µg/mL; MIC 90 Klebsiella pneumoniae (Klebsiella pneumoniae; N=86): 8 µg/mL; genotoxicity risk (in words) (CHO-K1 cells): completely devoid of any genotoxicity risk; % (in-vitro micronucleus assay) (CHO-K1 cells; CHO-K1 cells): 0.45%; In vitro micronucleus forming concentration (CHO-K1 cells; CHO-K1 cells): >1000 µM; MIC 90 Citrobacter freundii (Citrobacter freundii; N=19): 2 µg/mL; MIC 90 Providencia rettgeri, P. stuartii ([8]; N=12): 1 µg/mL; MIC 90 Serratia marcescens (Serratia marcescens; N=15): 16 µg/mL; MIC 90 Escherichia coli (Escherichia coli; N=38): 0.5 µg/mL; MIC 90 Morganella morganii (Morganella morganii; N=11): 1 µg/mL"
2,4,2,4,0.03,0.03,< 0.03,0.5,0.03,0.03,8,4,1,4,16,1,1,"Cn1c(=O)ccc2ncc(OCCNC[C@H]3CN(c4cnc5c(n4)NC(=O)CS5)C(=O)O3)nc21 [Compound 2, (S)-5-(((2-((5-Methyl-6-oxo-5,6-dihydropyrido[2,3-b]pyrazin-3-yl)oxy)ethyl)amino)methyl)-3-(3-oxo-3,4-dihydro-2H-pyrazino[2,3-b][1,4]thiazin-6-yl)oxazolidin-2-one, reference compound]",> 150,1.67,8,
0.5,2,2,4,0.03,0.1,< 0.03,0.5,0.03,0.03,4,4,2,2,8,0.5,1,"Cn1c(=O)cnc2ccc(OCCNC[C@H]3CN(c4cnc5c(n4)NC(=O)CS5)C(=O)O3)nc21 [Compound 1, (S)-5-(((2-((4-Methyl-3-oxo-3,4-dihydropyrido[2,3-b]pyrazin-6-yl)oxy)ethyl)amino)methyl)-3-(3-oxo-3,4-dihydro-2H-pyrazino[2,3-b][1,4]thiazin-6-yl)oxazolidin-2-one, reference compound]",58,1.58,32,
